# Source: patent US12338256B2, “Aza-tetracyclic oxazepine compounds and uses thereof” (Genentech, Inc., priority 2022, dated 2025)
# Columns and labels:
# [1] = system: HPAC (homozygous mutant KRAS G12D human pancreatic cell line); experiment: KRAS 3D-Cell Proliferation Assay, HPAC (Example 503); type: cell-based; conditions: Homo sapiens, HPAC, 168 h, HPAC 3D culture, 7 days, CellTiter-Glo 3D; read-out: Prolif HPAC 3D ATP IC50
# Procedure, shortened: (§1)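 IC50 values derive from 4-parameter Hill fits of normalized luminescence, where DMSO sets 0% and 1 μM staurosporine 100% inhibition. 3D cultures in RPMI-1640 with 10% fetal bovine serum were exposed to compound for 7 days before CellTiter-Glo 3D lysis.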
# [2] = system: H1975 (KRAS wild type human lung adenocarcinoma cell line); experiment: KRAS 3D-Cell Proliferation Assay, H1975 (Example 503); type: cell-based; conditions: Homo sapiens, NCI-H1975, 168 h, H1975 3D culture, 7 days, CellTiter-Glo 3D; read-out: Prolif H1975 3D ATP IC50
# Procedure, shortened: as §1
Structure (SMILES),IC50 [1] [nM],IC50 [2] [nM]
"Cc1c(F)c(N)cc(-c2nc3c4c(nc(OCC5CCC6CN(C)C(=O)CN56)nc4c2F)N2C[C@H]4CC[C@H](N4)[C@H]2[C@H](C)O3)c1C(F)(F)F (mixture of isomers) [Compound 124, 6-((((5S,5aS,6S,9R)-2-(5-Amino-4-fluoro-3-methyl-2-(trifluoromethyl)phenyl)-1-fluoro-5-methyl-5a,6,7,8,9,10-hexahydro-5H-4-oxa-3,10a,11,13,14-pentaaza-6,9-methanonaphtho[1,8-ab]heptalen-12-yl)oxy)methyl)-2-methylhexahydropyrrolo[1,2-a]pyrazin-3(4H)-one]",293,12200
"Cc1c(F)c(N)cc(-c2nc3c4c(nc(OC[C@@]56CCC(C)N5C[C@H](F)C6)nc4c2F)N2C[C@H]4CC[C@H](N4)[C@H]2[C@H](C)O3)c1C(F)(F)F (stereo partly drawn) [Compound 122, 2-fluoro-5-((5S,5aS,6S,9R)-1-fluoro-12-(((2R,7aS)-2-fluoro-5-methyltetrahydro-1H-pyrrolizin-7a(5H)-yl)methoxy)-5-methyl-5a,6,7,8,9,10-hexahydro-5H-4-oxa-3,10a,11,13,14-pentaaza-6,9-methanonaphtho[1,8-ab]heptalen-2-yl)-3-methyl-4-(trifluoromethyl)aniline]",1.84,487
"Cc1nc(N)cc(-c2nc3c4c(nc(OCC5(CN6C[C@@H]7C[C@H]6CO7)CC5)nc4c2F)N2C[C@H]4CC[C@H](N4)[C@H]2[C@H](C)O3)c1C(F)(F)F [Compound 208, 4-((5S,5aS,6S,9R)-12-((1-(((1S,4S)-2-Oxa-5-azabicyclo[2.2.1]heptan-5-yl)methyl)cyclopropyl)methoxy)-1-fluoro-5-methyl-5a,6,7,8,9,10-hexahydro-5H-4-oxa-3,10a,11,13,14-pentaaza-6,9-methanonaphtho[1,8-ab]heptalene-2-yl)-6-methyl-5-(trifluoromethyl)pyridin-2-amine]",4.89,3630
"Cc1cc(N)cc(-c2nc3c4c(nc(OC[C@@]56CCCN5CC5(CC5(F)F)C6)nc4c2F)N2C[C@H]4CC[C@H](N4)[C@H]2[C@H](C)O3)c1C(F)(F)F (stereo partly drawn) [Compound 68, 3-((5S,5aS,6S,9R)-12-(((7a′S)-2,2-Difluorodihydro-1′H,3′H-spiro[cyclopropane-1,2′-pyrrolizin]-7a′(5′H)-yl)methoxy)-1-fluoro-5-methyl-5a,6,7,8,9,10-hexahydro-5H-4-oxa-3,10a,11,13,14-pentaaza[6,9]methanonaphtho[1,8-ab]heptalen-2-yl)-5-methyl-4-(trifluoromethyl)aniline]",0.205,146
"Cc1nc(N)cc(-c2nc3c4c(nc(OCC5(CN6CC7COCC7C6)CC5)nc4c2F)N2C[C@H]4CC[C@H](N4)[C@H]2[C@H](C)O3)c1C(F)(F)F (stereo partly drawn) [Compound 205, 4-((5S,5aS,6S,9R)-1-Fluoro-5-methyl-12-((1-((tetrahydro-1H-furo[3,4-c]pyrrol-5(3H)-yl)methyl)cyclopropyl)methoxy)-5a,6,7,8,9,10-hexahydro-5H-4-oxa-3,10a,11,13,14-pentaaza-6,9-methanonaphtho[1,8-ab]heptalen-2-yl)-6-methyl-5-(trifluoromethyl)pyridin-2-amine]",3.35,1130
"Cc1nc(N)cc(-c2nc3c4c(nc(OC[C@@]56CCCN5C[C@H](F)C6)nc4c2F)N2C[C@H]4CC[C@H](N4)[C@H]2[C@H](C)O3)c1CC(F)F [Compound 189, 5-(2,2-Difluoroethyl)-4-((5S,5aS,6S,9R)-1-fluoro-12-(((2R,7aS)-2-fluorotetrahydro-1H-pyrrolizin-7a(5H)-yl)methoxy)-5-methyl-5a,6,7,8,9,10-hexahydro-5H-4-oxa-3,10a,11,13,14-pentaaza-6,9-methanonaphtho[1,8-ab]heptalene-2-yl)-6-methylpyridin-2-amine]",95.4,20000
"Cc1c(F)c(N)cc(-c2nc3c4c(nc(OC[C@H]5[C@H](C#N)CCN5C)nc4c2F)N2C[C@H]4CC[C@H](N4)[C@H]2[C@H](C)O3)c1C(F)(F)F [Compound 161, (2R,3R)-2-((((5S,5aS,6S,9R)-2-(5-Amino-4° fluoro-3-methyl-2-(trifluoromethyl)°henyl)-1-fluoro-5-methyl-5a,6,7,8,9,10-hexahydro-5H-4-oxa-3,10a,11,13,14-pentaaza-6,9-methanonaphtho[1,8-ab]heptalen-12-yl)oxy)methyl)-1-methylpyrrolidine-3-carbonitrile]",68.9,13000
"Cc1nc(N)cc(-c2nc3c4c(nc(OCC5(CN6CCCC67CCOC7)CC5)nc4c2F)N2C[C@H]4CC[C@H](N4)[C@H]2[C@H](C)O3)c1C(F)(F)F (stereo partly drawn) [Compound 282, 4-((5S,5aS,6S,9R)-12-((1-((7-oxa-1-azaspiro[4.4]nonan-1-yl)methyl)cyclopropyl)methoxy)-1-fluoro-5-methyl-5a,6,7,8,9,10-hexahydro-5H-4-oxa-3,10a,11,13,14-pentaaza[6,9]methanonaphtho[1,8-ab]heptalene-2-yl)-6-methyl-5-(trifluoromethyl)pyridin-2-amine]",3.96,2450
"Cc1nc(N)cc(-c2nc3c4c(nc(OC[C@@]56CCN5CC(F)(F)C6)nc4c2F)N2C[C@H]4CC[C@H](N4)[C@H]2[C@H](C(F)(F)F)O3)c1C(F)(F)F (single isomer, unassigned) [252 (isomer 1)]",20.4,7710
"Cc1nc(N)cc(-c2nc3c4c(nc(OCC5(CN6C[C@H]7C[C@@H]6CO7)CC5)nc4c2F)N2C[C@H]4CC[C@H](N4)[C@H]2[C@H](C)O3)c1C(F)(F)F [Compound 209, 4-((5S,5aS,6S,9R)-12-((1-(((1R,4R)-2-Oxa-5-azabicyclo[2.2.1]heptan-5-yl)methyl)cyclopropyl)methoxy)-1-fluoro-5-methyl-5a,6,7,8,9,10-hexahydro-5H-4-oxa-3,10a,11,13,14-pentaaza-6,9-methanonaphtho[1,8-ab]heptalene-2-yl)-6-methyl-5-(trifluoromethyl)pyridin-2-amine]",3.47,282
"C[C@@H]1Oc2nc(-c3cc(N)c(F)c(F)c3CC(F)F)c(F)c3cc(OC[C@@H]4CC[C@H]5COCCN54)nc(c23)N2C[C@H]3CC[C@H](N3)[C@@H]12 [Compound 158, 4-(2,2-Difluoroethyl)-2,3-difluoro-5-((5S,5aS,6S,9R)-1-fluoro-13-(((6S,8aS)-hexahydro-1H-pyrrolo[2,1-c][1,4]oxazin-6-yl)methoxy)-5-methyl-5a,6,7,8,9,10-hexahydro-5H-6,9-epiminoazepino[2′,1′:3,4][1,4]oxazepino[5,6,7-ij][2,7]naphthyridin-2-yl)aniline]",9.94,13800
"C[C@@H]1Oc2nc(-c3[nH]c(=O)cc4ccccc34)c(F)c3nc(OC[C@@]45CCCN4C[C@H](F)C5)nc(c23)N2C[C@H]3CC[C@H](N3)[C@@H]12 [Compound 105, 1-((5S,5aS,6S,9R)-1-Fluoro-12-(((2R,7aS)-2-fluorotetrahydro-1H-pyrrolizin-7a(5H)-yl)methoxy)-5-methyl-5a,6,7,8,9,10-hexahydro-5H-4-oxa-3,10a,11,13,14-pentaaza-6,9-methanonaphtho[1,8-ab]heptalen-2-yl)isoquinolin-3(2H)-one]",2000,20000
"Cc1c(F)c(N)cc(-c2nc3c4c(nc(OCC56C[C@H](F)CN5C[C@@H](F)C6)nc4c2F)N2C[C@H]4CC[C@H](N4)[C@H]2[C@H](C)O3)c1C(F)(F)F [Compound 139, 5-((5S,5aS,6S,9R)-12-(((2S,6S)-2,6-Difluorotetrahydro-1H-pyrrolizin-7a(5H)-yl)methoxy)-1-fluoro-5-methyl-5a,6,7,8,9,10-hexahydro-5H-4-oxa-3,10a,11,13,14-pentaaza-6,9-methanonaphtho[1,8-ab]heptalen-2-yl)-2-fluoro-3-methyl-4-(trifluoromethyl)aniline]",118,8570
"Cc1c(F)c(N)cc(-c2nc3c4c(nc(OCCCN5CCOCC5)nc4c2F)N2C[C@H]4CC[C@H](N4)[C@H]2[C@H](C)O3)c1C(F)(F)F [Compound 138, 2-Fluoro-5-((5S,5aS,6S,9R)-1-fluoro-5-methyl-12-(3-morpholinopropoxy)-5a,6,7,8,9,10-hexahydro-5H-4-oxa-3,10a,11,13,14-pentaaza-6,9-methanonaphtho[1,8-ab]heptalen-2-yl)-3-methyl-4-(trifluoromethyl)aniline]",15.1,2550
"Cc1c(F)c(N)cc(-c2nc3c4c(nc(OC[C@@H]5CCC6CC(F)(F)CCN65)nc4c2F)N2C[C@H]4CC[C@H](N4)[C@H]2[C@H](C)O3)c1C(F)(F)F (single isomer, unassigned) [119 (isomer 2)]",7.95,1700
"Cc1c(F)c(N)nc(-c2nc3c4c(nc(OC[C@@]56CCCN5CC5(CC5(F)F)C6)nc4c2F)N2C[C@H]4CC[C@H](N4)[C@H]2[C@H](C)O3)c1C(F)(F)F (stereo partly drawn) [Compound 192, 6-((5S,5aS,6S,9R)-12-(((7a′S)-2,2-Difluorodihydro-1′H,3′H-spiro[cyclopropane-1,2′-pyrrolizin]-7a′(5′H)-yl)methoxy)-1-fluoro-5-methyl-5a,6,7,8,9,10-hexahydro-5H-4-oxa-3,10a,11,13,14-pentaaza[6,9]methanonaphtho[1,8-ab]heptalene-2-yl)-3-fluoro-4-methyl-5-(trifluoromethyl)pyridin-2-amine]",7.17,1280
"Cc1c(F)c(N)cc(-c2nc3c4c(nc(OC[C@@H]5CO[C@H]6CC[N@]5C6)nc4c2F)N2C[C@H]4CC[C@H](N4)[C@H]2[C@H](C)O3)c1C(F)(F)F [Compound 135, 5-((5S,5aS,6S,9R)-12-(((1R,2S,5S)-4-Oxa-1-azabicyclo[3.2.1]octan-2-yl)methoxy)-1-fluoro-5-methyl-5a,6,7,8,9,10-hexahydro-5H-4-oxa-3,10a,11,13,14-pentaaza-6,9-methanonaphtho[1,8-ab]heptalen-2-yl)-2-fluoro-3-methyl-4-(trifluoromethyl)aniline]",95.6,20000
